Laboratory results taken from ChEMBL document CHEMBL1143383, “Novel heteroaromatic organofluorine inhibitors of fructose-1,6-bisphosphatase” (J Med Chem, 2009).

Molecular target: T1, Fructose-1,6-bisphosphatase 1 (Mus musculus, UniProt Q9QXD6)
T1 sequence (Q9QXD6 whole entry): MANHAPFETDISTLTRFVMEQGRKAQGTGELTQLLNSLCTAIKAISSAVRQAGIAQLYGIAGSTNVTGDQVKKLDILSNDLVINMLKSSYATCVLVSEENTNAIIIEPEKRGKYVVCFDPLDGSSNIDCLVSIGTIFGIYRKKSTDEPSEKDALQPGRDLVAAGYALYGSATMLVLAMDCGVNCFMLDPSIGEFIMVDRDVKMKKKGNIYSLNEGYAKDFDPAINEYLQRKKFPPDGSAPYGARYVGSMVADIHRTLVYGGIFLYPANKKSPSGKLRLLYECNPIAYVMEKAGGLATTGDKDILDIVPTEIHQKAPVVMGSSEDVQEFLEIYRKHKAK
Experiment: Inhibition of fructose-1,6-bisphosphatase in mouse liver homogenates by colorimetric phosphate assay
Type: tissue-based

SMILES | IC50
CCOC(=O)C(O)(c1c[nH]c2ccc(I)cc12)C(F)(F)F (stereo not drawn) | 13.3 µM
Cc1ccc(S(=O)(=O)n2cccc2)cc1 | > 300 µM
CCOC(=O)CC(O)(c1ccc[nH]1)C(F)(F)F (stereo not drawn) | 25.7 µM
O=[N+]([O-])c1ccc(S(=O)(=O)n2cccc2)cc1 | 109 µM
O=[N+]([O-])c1ccc(S(=O)(=O)n2c3ccccc3c3ccccc32)cc1 | 177 µM
Cc1ccccc1S(=O)(=O)n1cccc1 | > 250 µM
CCOC(=O)C(O)(c1ccc[nH]1)C(F)(F)F (stereo not drawn) | 25.7 µM
CCOC(=O)C(O)(c1c[nH]c2ccc(C)cc12)C(F)(F)F (stereo not drawn) | 36 µM
CCOC(=O)CC(O)(c1[nH]c(C)cc1C)C(F)(F)F (stereo not drawn) | 4.81 µM
O=C(c1ccc(F)cc1)n1ccc2ccccc21 | 129 µM
O=[N+]([O-])c1ccc(S(=O)(=O)n2ccc3ccccc32)cc1 | 185 µM
O=S(=O)(c1ccccc1)n1ccc2ccccc21 | 119 µM
O=C(c1ccc(C(F)(F)F)cc1)n1ccc2ccccc21 | 3.09 µM
FC(F)(F)c1cccc(-n2nc(-c3ccccc3)cc2-c2ccccc2)c1 | 6.04 µM
O=[N+]([O-])c1ccc(-n2nc(-c3ccccc3)cc2-c2ccccc2)cc1 | > 300 µM
O=S(=O)(c1ccc2ccccc2c1)n1ccc2ccccc21 | > 300 µM
O=C(c1ccc([N+](=O)[O-])cc1)n1ccc2ccccc21 | > 300 µM
COc1ccc(S(=O)(=O)n2c3ccccc3c3ccccc32)cc1 | > 250 µM
O=S(=O)(c1ccccc1)n1cccc1 | 76.2 µM
CCOC(=O)CC(O)(c1cccn1C)C(F)(F)F (stereo not drawn) | 41.8 µM
Fc1ccc(-c2cc(-c3ccc(F)cc3)n(-c3cccc(C(F)(F)F)c3)n2)cc1 | 75.5 µM
COc1ccc2[nH]c3c(C)ccc(C)c3c2c1 | > 300 µM
O=S(=O)(c1ccc2ccccc2c1)n1c2ccccc2c2ccccc21 | > 300 µM
COc1ccc(S(=O)(=O)n2ccc3ccccc32)cc1 | > 300 µM
COC(=O)c1ccc2[nH]c3ccccc3c2c1 | > 300 µM
COc1ccc(S(=O)(=O)n2cccc2)cc1 | 246 µM
CCOC(=O)C(O)(c1cn(C)c2ccccc12)C(F)(F)F (stereo not drawn) | 11.9 µM
Fc1ccc(-c2cc(-c3ccc(F)cc3)n(-c3ccccc3)n2)cc1 | 151 µM
